The assay is filed under the species Rattus norvegicus. Put plainly: Compound was tested in vitro for growth hormone release in rat pituitary model. The class given is functional.
Regarding `CC(=O)NC[C@@H](Cc1ccccc1)N(C)C(=O)[C@@H](Cc1ccc2ccccc2c1)N(C)C(=O)/C=C/CC(C)(C)N`, the EC50 (usually the midpoint of the concentration-response curve) was 25 nM.

Compound `CN(C(=O)[C@@H](Cc1ccc2ccccc2c1)N(C)C(=O)/C=C/CC(C)(C)N)[C@@H](CNC(=O)CCCO)Cc1ccccc1` registered an EC50 of 34 nM.

In turn, `CN(C(=O)[C@@H](Cc1ccc2ccccc2c1)N(C)C(=O)/C=C/CC(C)(C)N)[C@@H](CNS(C)(=O)=O)Cc1ccccc1` came in with an EC50 of 2.5 nM.

For `CN(C(=O)[C@@H](Cc1ccc2ccccc2c1)N(C)C(=O)/C=C/CC(C)(C)N)[C@H](Cc1cccs1)CN(C)S(C)(=O)=O`, a half-maximal response (EC50) required 3 nM.

On to `CNC(=O)[C@@H](Cc1ccccc1)N(C)C(=O)[C@@H](Cc1ccc2ccccc2c1)N(C)C(=O)/C=C/CC(C)(C)N` [TABIMORELIN], for which the EC50 is 2.7 nM. This EC50 and that of the compound before are within 1.5-fold of each other.

The values are drawn from ChEMBL document CHEMBL1132045, “New growth hormone secretagogues: C-terminal modified sulfonamide-analogues of NN703” (Bioorg Med Chem Lett, 1999).
